Biological target: recombinant human UAE (Homo sapiens (Human), UniProt P22314)
Experiment: Ubiquitin Activating Enzyme (UAE) HTRF assay, human UAE
Method: After incubation for 120 minutes, quantification of the FRET is performed on the Pherostar (BMG).
For compounds whose values are marked with an asterisk (*), mouse UAE was used. For all other compounds, human UAE was used.

Sequence of recombinant human UAE (P22314 whole entry): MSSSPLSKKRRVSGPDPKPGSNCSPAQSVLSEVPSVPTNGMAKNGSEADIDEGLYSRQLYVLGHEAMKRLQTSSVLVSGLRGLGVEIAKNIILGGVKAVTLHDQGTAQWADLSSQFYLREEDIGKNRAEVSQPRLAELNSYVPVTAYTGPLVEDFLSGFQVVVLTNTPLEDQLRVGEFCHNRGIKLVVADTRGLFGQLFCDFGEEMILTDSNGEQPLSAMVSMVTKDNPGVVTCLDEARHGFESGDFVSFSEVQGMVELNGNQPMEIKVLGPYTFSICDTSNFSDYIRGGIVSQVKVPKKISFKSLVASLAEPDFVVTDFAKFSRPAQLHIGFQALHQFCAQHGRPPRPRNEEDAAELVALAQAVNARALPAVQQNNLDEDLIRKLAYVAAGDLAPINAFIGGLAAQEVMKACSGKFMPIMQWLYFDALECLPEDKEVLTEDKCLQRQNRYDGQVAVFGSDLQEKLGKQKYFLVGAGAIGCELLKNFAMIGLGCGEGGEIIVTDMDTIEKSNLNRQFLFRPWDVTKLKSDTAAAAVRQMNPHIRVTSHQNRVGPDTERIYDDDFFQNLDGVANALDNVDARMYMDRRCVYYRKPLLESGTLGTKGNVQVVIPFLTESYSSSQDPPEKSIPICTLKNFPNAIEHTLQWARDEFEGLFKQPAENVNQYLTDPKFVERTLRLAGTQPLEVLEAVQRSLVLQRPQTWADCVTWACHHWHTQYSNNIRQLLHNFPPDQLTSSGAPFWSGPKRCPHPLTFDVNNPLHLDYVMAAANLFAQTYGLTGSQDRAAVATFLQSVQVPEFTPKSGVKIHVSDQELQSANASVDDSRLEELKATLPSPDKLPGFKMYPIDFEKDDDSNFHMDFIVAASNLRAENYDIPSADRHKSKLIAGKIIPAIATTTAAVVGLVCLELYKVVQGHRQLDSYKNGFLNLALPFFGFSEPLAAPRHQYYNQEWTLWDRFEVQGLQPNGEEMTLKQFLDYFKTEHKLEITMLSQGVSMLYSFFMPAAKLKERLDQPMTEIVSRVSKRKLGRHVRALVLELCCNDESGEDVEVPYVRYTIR

SMILES	IC50	% inhibition @0.111 μM (0.111 μM compound, human UAE)
NS(=O)(=O)OC[C@H]1C[C@@H](Nc2ccnc3cc(-c4ccc5ccccc5n4)nn23)[C@H](O)[C@@H]1O (racemic) [Compound I-042, (rac)-((1R,2R,3S,4R)-2,3-dihydroxy-4-(2-(quinolin-2-yl)pyrazolo[1,5-a]pyrimidin-7-ylamino)cyclopentyl)methyl rel-sulfamate]	< 0.01 µM	–
NS(=O)(=O)OC[C@H]1C[C@@H](Nc2ccnc3cc(-c4ccc5cccnc5c4)nn23)[C@H](O)[C@@H]1O (racemic) [Compound I-043, (rac)-((1R,2R,3S,4R)-2,3-dihydroxy-4-(2-(quinolin-7-yl)pyrazolo[1,5-a]pyrimidin-7-ylamino)cyclopentyl)methyl rel-sulfamate]	< 0.01 µM	–
NS(=O)(=O)OC[C@H]1C[C@@H](Nc2ccnc3cc(-c4cccc5ccsc45)nn23)[C@H](O)[C@@H]1O (racemic) [Compound I-045, (rac)-((1R,2R,3S,4R)-4-((2-(Benzo[b]thiophen-7-yl)pyrazolo[1,5-a]pyrimidin-7-yl)amino)-2,3-dihydroxycyclopentyl)methyl rel-sulfamate]	< 0.01 µM	–
NS(=O)(=O)OC[C@H]1C[C@@H](Nc2ccnc3cc(-c4coc5ccccc45)nn23)[C@H](O)[C@@H]1O (racemic) [Compound I-049, (rac)-((1R,2R,3S,4R)-4-(2-(benzofuran-3-yl)pyrazolo[1,5-a]pyrimidin-7-ylamino)-2,3-dihydroxycyclopentyl)methyl rel-sulfamate]	< 0.01 µM	–
NS(=O)(=O)OC[C@H]1C[C@@H](Nc2ccnc3cc(-c4cccc(OC(F)F)c4)nn23)[C@H](O)[C@@H]1O (racemic) [Compound I-050, (rac)-((1R,2R,3S,4R)-4-((2-(3-(Difluoromethoxy)phenyl)pyrazolo[1,5-a-]pyrimidin-7-yl)amino)-2,3-dihydroxycyclopentyl)methyl rel-sulfamate]	< 0.01 µM	–
NS(=O)(=O)OC[C@H]1C[C@@H](Nc2ccnc3cc(-c4cccc(Oc5ccccc5)c4)nn23)[C@H](O)[C@@H]1O (racemic) [Compound I-051, (rac)-((1R,2R,3S,4R)-2,3-Dihydroxy-4-((2-(3-phenoxyphenyl)pyrazolo[1,5-a]pyrimidin-7-yl)amino)cyclopentyl)methyl rel-sulfamate]	0.01 to 0.1 µM	–
CC(C)(C)c1cccc(-c2cc3nccc(N[C@@H]4C[C@H](COS(N)(=O)=O)[C@@H](O)[C@H]4O)n3n2)n1 (racemic) [Compound I-052, (rac)-((1R,2R,3S,4R)-4-(2-(6-tert-butylpyridin-2-yl)pyrazolo[1,5-a]pyrimidin-7-ylamino)-2,3-dihydroxycyclopentyl)methyl rel-sulfamate]	< 0.01 µM	–
NS(=O)(=O)OC[C@H]1C[C@@H](Nc2ccnc3cc(-c4c[nH]c5ccc(Cl)cc45)nn23)[C@H](O)[C@@H]1O (racemic) [Compound I-054, (rac)-[(1R,2R,3S,4R)-4-{[2-(5-chloro-1H-indol-3-yl)pyrazolo[1,5-a]pyrimidin-7-yl]amino}-2,3-dihydroxycyclopentyl]methyl rel-sulfamate]	< 0.01 µM	–
NS(=O)(=O)OC[C@H]1C[C@@H](Nc2ccnc3cc(-c4c[nH]c5cc(Cl)ccc45)nn23)[C@H](O)[C@@H]1O (racemic) [Compound I-055, (rac)-[(1R,2R,3S,4R)-4-{[2-(6-chloro-1H-indol-3-yl)pyrazolo[1,5-a]pyrimidin-7-yl]amino}-2,3-dihydroxycyclopentyl]methyl rel-sulfamate]	< 0.01 µM	–
NS(=O)(=O)OC[C@H]1C[C@@H](Nc2ccnc3cc(-c4cccc5c4sc4ccccc45)nn23)[C@H](O)[C@@H]1O (racemic) [Compound I-056, (rac)-((1R,2R,3S,4R)-4-((2-(Dibenzo[b,d]thiophen-4-yl)pyrazolo[1,5-a]pyrimidin-7-yl)amino)-2,3-dihydroxycyclopentyl)methyl rel-sulfamate]	< 0.01 µM	–
NS(=O)(=O)OC[C@H]1C[C@@H](Nc2ccnc3cc(-c4cc(Cl)ccc4OC(F)(F)F)nn23)[C@H](O)[C@@H]1O (racemic) [Compound I-057, (rac)-((1R,2R,3S,4R)-4-(2-(5-chloro-2-(trifluoromethoxy)phenyl)pyrazolo[1,5-a]pyrimidin-7-ylamino)-2,3-dihydroxycyclopentyl)methyl rel-sulfamate]	< 0.01 µM	–
CC(C)(c1cccc(-c2cc3nccc(N[C@@H]4C[C@H](COS(N)(=O)=O)[C@@H](O)[C@H]4O)n3n2)c1)C(F)(F)F (racemic) [Compound I-058, (rac)-((1R,2R,3S,4R)-2,3-dihydroxy-4-(2-(3-(1,1,1-trifluoro-2-methylpropan-2-yl)phenyl)pyrazolo[1,5-a]pyrimidin-7-ylamino)cyclopentyl)methyl rel-sulfamate]	< 0.01 µM	–
NS(=O)(=O)OC[C@H]1C[C@@H](Nc2ccnc3cc(-c4ccnc(C(F)(F)F)c4)nn23)[C@H](O)[C@@H]1O (racemic) [Compound I-059, (rac)-((1R,2R,3S,4R)-2,3-dihydroxy-4-(2-(2-(trifluoromethyl)pyridin-4-yl)pyrazolo[1,5-a]pyrimidin-7-ylamino)cyclopentyl)methyl rel-sulfamate]	0.01 to 0.1 µM	–
NS(=O)(=O)OC[C@H]1C[C@@H](Nc2ccnc3cc(-c4ccc(C(F)(F)F)s4)nn23)[C@H](O)[C@@H]1O (racemic) [Compound I-060, (rac)-((1R,2R,3S,4R)-2,3-Dihydroxy-4-((2-(5-(trifluoromethyl)thiophen-2-yl)pyrazolo[1,5-a]pyrimidin-7-yl)amino)cyclopentyl)methyl rel-sulfamate]	0.01 to 0.1 µM	–
NS(=O)(=O)OC[C@H]1C[C@@H](Nc2ccnc3cc(-c4cccc5sccc45)nn23)[C@H](O)[C@@H]1O (racemic) [Compound I-061, (rac)-((1R,2R,3S,4R)-4-((2-(Benzo[b]thiophen-4-yl)pyrazolo[1,5-a]pyrimidin-7-yl)amino)-2,3-dihydroxycyclopentyl)methyl rel-sulfamate]	< 0.01 µM	–
NS(=O)(=O)OC[C@H]1C[C@@H](Nc2ccnc3cc(-c4ccc5c(c4)[nH]c4ccccc45)nn23)[C@H](O)[C@@H]1O (racemic) [Compound I-062, (rac)-[(1R,2R,3S,4R)-4-{[2-(9H-carbazol-2-yl)pyrazolo[1,5-a]pyrimidin-7-yl]amino}-2,3-dihydroxycyclopentyl]methyl rel-sulfamate]	< 0.01 µM	–
COc1ccc(C(C)(C)C)cc1-c1cc2nccc(N[C@@H]3C[C@H](COS(N)(=O)=O)[C@@H](O)[C@H]3O)n2n1 (racemic) [Compound I-063, (rac)-((1R,2R,3S,4R)-4-{[2-(5-tert-butyl-2-methoxyphenyl)pyrazolo[1,5-a]pyrimidin-7-yl]amino}-2,3-dihydroxycyclopentyl)methyl rel-sulfamate]	–	100%
NS(=O)(=O)OC[C@H]1C[C@@H](Nc2ccnc3cc(-c4cccc(C(F)(F)F)n4)nn23)[C@H](O)[C@@H]1O (racemic) [Compound I-064, (rac)-((1R,2R,3S,4R)-2,3-dihydroxy-4-(2-(6-(trifluoromethyl)pyridin-2-yl)pyrazolo[1,5-a]pyrimidin-7-ylamino)cyclopentyl)methyl rel-sulfamate]	0.01 to 0.1 µM	–
COc1ccc(C(F)(F)F)cc1-c1cc2nccc(N[C@@H]3C[C@H](COS(N)(=O)=O)[C@@H](O)[C@H]3O)n2n1 (racemic) [Compound I-065, (rac)-((1R,2R,3S,4R)-2,3-Dihydroxy-4-((2-(2-methoxy-5-(trifluoromethyl)phenyl)-pyrazolo[1,5-a]pyrimidin-7-yl)amino)cyclopentyl)methyl rel-sulfamate]	< 0.01 µM	–
COc1ccc(OC(F)(F)F)cc1-c1cc2nccc(N[C@@H]3C[C@H](COS(N)(=O)=O)[C@@H](O)[C@H]3O)n2n1 (racemic) [Compound I-066, (rac)-((1R,2R,3S,4R)-2,3-Dihydroxy-4-((2-(2-methoxy-5-(trifluoromethoxy)-phenyl)pyrazolo[1,5-a]pyrimidin-7-yl)amino)cyclopentyl)methyl rel-sulfamate]	< 0.01 µM	–
NS(=O)(=O)OC[C@H]1C[C@@H](Nc2ccnc3cc(-c4ccccc4Oc4ccccc4)nn23)[C@H](O)[C@@H]1O (racemic) [Compound I-068, (rac)-((1R,2R,3S,4R)-2,3-dihydroxy-4-(2-(2-phenoxyphenyl)pyrazolo[1,5-a]pyrimidin-7-ylamino)cyclopentyl)methyl rel-sulfamate]	0.01 to 0.1 µM	–
NS(=O)(=O)OC[C@H]1C[C@@H](Nc2ccnc3cc(-c4cccc(Cc5ccccc5)c4)nn23)[C@H](O)[C@@H]1O (racemic) [Compound I-069, (rac)-((1R,2R,3S,4R)-4-(2-(3-benzylpenyl)pyrazolo[1,5-a]pyrimidin-7-ylamino)-2,3-dihydroxycyclopentyl)methyl rel-sulfamate]	0.01 to 0.1 µM	–
COc1cc(F)ccc1-c1cc2nccc(N[C@@H]3C[C@H](COS(N)(=O)=O)[C@@H](O)[C@H]3O)n2n1 (racemic) [Compound I-070, (rac)-((1R,2R,3S,4R)-4-(2-(4-fluoro-2-methoxyphenyl)pyrazolo[1,5-a]pyrimidin-7-ylamino)-2,3-dihydroxycyclopentyl)methyl rel-sulfamate]	< 0.01 µM	–
NS(=O)(=O)OC[C@H]1C[C@@H](Nc2ccnc3cc(-c4csc5ccc(Cl)cc45)nn23)[C@H](O)[C@@H]1O (racemic) [Compound I-071, (rac)-((1R,2R,3S,4R)-4-(2-(5-chlorobenzo[b]thiophen-3-yl)pyrazolo[1,5-a]pyrimidin-7-ylamino)-2,3-dihydroxycyclopentyl)methyl rel-sulfamate]	< 0.01 µM	–
COc1ccccc1-c1cc2nccc(N[C@@H]3C[C@H](COS(N)(=O)=O)[C@@H](O)[C@H]3O)n2n1 (racemic) [Compound I-072, (rac)-((1R,2R,3S,4R)-2,3-dihydroxy-4-(2-(2-methoyphenyl)pyrazolo[1,5-a]pyrimidin-7-ylamino)cyclopentyl)methyl rel-sulfamate]	< 0.01 µM	–
NS(=O)(=O)OC[C@H]1C[C@@H](Nc2ccnc3cc(-c4cccc(C(=O)c5ccccc5)c4)nn23)[C@H](O)[C@@H]1O (racemic) [Compound I-073, (rac)-((1R,2R,3S,4R)-4-(2-(3-benzoylphenyl)pyrazolo[1,5-a]pyrimidin-7-ylamino)-2,3-dihydroxycyclopentyl)methyl rel-sulfamate]	0.01 to 0.1 µM	–

Reference: patent publication US9663525B2, “Pyrazolopyrimidinyl inhibitors of ubiquitin-activating enzyme” (Millennium Pharmaceuticals, Inc., priority 2012, dated 2017)
